Source: PubChem BioAssay AID1259407 (Chemical Carcinogenesis Research Information System (CCRIS), 2018)
Calls of active or inactive are those of the source. No rule for the calls is given here.

Test system: CCRIS mutagenicity, Ames/micronucleus/aberration tests
Test: CCRIS mutagenicity studies
Conditions: Test System: AMES SALMONELLA TYPHIMURIUM
[1] = Strain/Indicator: TA98, Metabolic Activation: NONE
[2] = Strain/Indicator: TA98, Metabolic Activation: RAT, LIVER, S-9, AROCLOR 1254
[3] = Strain/Indicator: TA100, Metabolic Activation: NONE
[4] = Strain/Indicator: TA100, Metabolic Activation: RAT, LIVER, S-9, AROCLOR 1254
[5] = Strain/Indicator: TA102, Metabolic Activation: NONE
[6] = Strain/Indicator: TA102, Metabolic Activation: RAT, LIVER, S-9, AROCLOR 1254
[7] = Strain/Indicator: TA1535, Metabolic Activation: NONE
[8] = Strain/Indicator: TA1535, Metabolic Activation: RAT, LIVER, S-9, AROCLOR 1254
[9] = Strain/Indicator: TA1537, Metabolic Activation: NONE
[10] = Strain/Indicator: TA1537, Metabolic Activation: RAT, LIVER, S-9, AROCLOR 1254

| SMILES | mutagenic call [1] | mutagenic call [2] | mutagenic call [3] | mutagenic call [4] | mutagenic call [5] | mutagenic call [6] | mutagenic call [7] | mutagenic call [8] | mutagenic call [9] | mutagenic call [10] | other results |
| --- | --- | --- | --- | --- | --- | --- | --- | --- | --- | --- | --- |
| COP(=S)(OC)Oc1nc(Cl)c(Cl)cc1Cl | inactive; negative | inactive; negative | inactive; negative | inactive; negative | inactive; negative | inactive; negative | inactive; negative | inactive; negative | inactive; negative | inactive; negative |  |
| Cc1cc(=O)[nH]c(=S)[nH]1 |  |  |  |  |  |  |  |  |  |  | mutagenic call (Strain/Indicator: TA97, Metabolic Activation: HAMSTER, LIVER, S-9, AROCLOR 1254 (10 OR 30%), Method: PREINCUBATION): inactive; negative; mutagenic call (Strain/Indicator: TA97, Metabolic Activation: NONE, Method: PREINCUBATION): inactive; negative; mutagenic call (Strain/Indicator: TA97, Metabolic Activation: RAT, LIVER, S-9, AROCLOR 1254 (10 OR 30%), Method: PREINCUBATION): inactive; negative; mutagenic call (Strain/Indicator: TA98, Metabolic Activation: HAMSTER, LIVER, S-9, AROCLOR 1254 (10 OR 30%), Method: PREINCUBATION): inactive; negative; mutagenic call (Strain/Indicator: TA98, Metabolic Activation: NONE, Method: PREINCUBATION): inactive; negative; mutagenic call (Strain/Indicator: TA98, Metabolic Activation: RAT, LIVER, S-9, AROCLOR 1254 (10 OR 30%), Method: PREINCUBATION): inactive; negative; mutagenic call (Strain/Indicator: TA100, Metabolic Activation: HAMSTER, LIVER, S-9, AROCLOR 1254 (10%), Method: PREINCUBATION): inactive; negative; mutagenic call (Strain/Indicator: TA100, Metabolic Activation: HAMSTER, LIVER, S-9, AROCLOR 1254 (30%), Method: PREINCUBATION): inactive; negative; mutagenic call (Strain/Indicator: TA100, Metabolic Activation: NONE, Method: PREINCUBATION): inactive; negative; mutagenic call (Strain/Indicator: TA100, Metabolic Activation: RAT, LIVER, S-9, AROCLOR 1254 (10%), Method: PREINCUBATION): inactive; negative; mutagenic call (Strain/Indicator: TA100, Metabolic Activation: RAT, LIVER, S-9, AROCLOR 1254 (30%), Method: PREINCUBATION): inactive; negative; mutagenic call (Strain/Indicator: TA1535, Metabolic Activation: HAMSTER, LIVER, S-9, AROCLOR 1254 (10 OR 30%), Method: PREINCUBATION): inactive; negative; mutagenic call (Strain/Indicator: TA1535, Metabolic Activation: NONE, Method: PREINCUBATION): inactive; negative; mutagenic call (Strain/Indicator: TA1535, Metabolic Activation: RAT, LIVER, S-9, AROCLOR 1254 (10 OR 30%), Method: PREINCUBATION): inactive; negative |
| COP(=S)(OC)Oc1ccc(N)c(C)c1 |  |  |  |  |  |  |  |  |  |  | mutagenic call (Strain/Indicator: TA98, Metabolic Activation: NONE, Method: STANDARD PLATE): inactive; negative; mutagenic call (Strain/Indicator: TA98, Metabolic Activation: RAT, LIVER, S-9, AROCLOR 1254, Method: STANDARD PLATE): inactive; negative; mutagenic call (Strain/Indicator: TA100, Metabolic Activation: NONE, Method: STANDARD PLATE): inactive; negative; mutagenic call (Strain/Indicator: TA100, Metabolic Activation: RAT, LIVER, S-9, AROCLOR 1254, Method: STANDARD PLATE): active; positive |
| COP(=O)(OC)O/C(=C\Cl)c1cc(Cl)c(Cl)cc1Cl | inactive; negative | inactive; negative | inactive; negative | inactive; negative | inactive; negative | inactive; negative | inactive; negative | inactive; negative | inactive; negative | inactive; negative |  |
